For 42 compounds, IC50 results are on record in patent publication US10696672B2 (Pliant Therapeutics, Inc., priority 2016, dated 2020).

The structures appear in SMILES notation.

recombinant human integrin αvβ6, sequence (P06756 31-992): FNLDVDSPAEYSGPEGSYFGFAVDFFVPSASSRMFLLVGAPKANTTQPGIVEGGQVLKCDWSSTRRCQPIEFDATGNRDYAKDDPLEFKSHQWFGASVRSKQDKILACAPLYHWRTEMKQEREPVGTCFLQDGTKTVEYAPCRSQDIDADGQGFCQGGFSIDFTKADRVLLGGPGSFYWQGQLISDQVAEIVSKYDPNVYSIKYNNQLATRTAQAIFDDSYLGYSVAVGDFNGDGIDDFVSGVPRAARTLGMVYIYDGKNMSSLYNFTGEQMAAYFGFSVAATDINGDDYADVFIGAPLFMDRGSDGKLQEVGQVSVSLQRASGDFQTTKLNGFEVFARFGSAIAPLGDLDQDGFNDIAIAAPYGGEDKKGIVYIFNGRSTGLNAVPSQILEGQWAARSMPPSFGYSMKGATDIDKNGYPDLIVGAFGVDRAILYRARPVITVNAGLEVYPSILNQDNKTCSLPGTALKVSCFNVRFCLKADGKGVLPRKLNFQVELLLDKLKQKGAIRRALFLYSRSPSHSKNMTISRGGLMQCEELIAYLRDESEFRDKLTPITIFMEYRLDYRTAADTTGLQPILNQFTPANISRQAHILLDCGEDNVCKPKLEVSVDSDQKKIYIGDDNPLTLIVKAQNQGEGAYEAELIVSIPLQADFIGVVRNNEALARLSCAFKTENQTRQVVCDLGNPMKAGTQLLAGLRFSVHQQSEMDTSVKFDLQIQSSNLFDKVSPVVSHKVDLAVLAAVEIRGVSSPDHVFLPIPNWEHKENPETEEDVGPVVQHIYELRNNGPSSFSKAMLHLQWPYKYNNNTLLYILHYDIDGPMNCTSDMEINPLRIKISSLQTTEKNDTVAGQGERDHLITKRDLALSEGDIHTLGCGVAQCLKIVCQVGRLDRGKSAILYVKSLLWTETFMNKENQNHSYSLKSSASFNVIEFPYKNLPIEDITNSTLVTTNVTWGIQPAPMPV
recombinant human integrin αvβ6, sequence (P18564 22-707): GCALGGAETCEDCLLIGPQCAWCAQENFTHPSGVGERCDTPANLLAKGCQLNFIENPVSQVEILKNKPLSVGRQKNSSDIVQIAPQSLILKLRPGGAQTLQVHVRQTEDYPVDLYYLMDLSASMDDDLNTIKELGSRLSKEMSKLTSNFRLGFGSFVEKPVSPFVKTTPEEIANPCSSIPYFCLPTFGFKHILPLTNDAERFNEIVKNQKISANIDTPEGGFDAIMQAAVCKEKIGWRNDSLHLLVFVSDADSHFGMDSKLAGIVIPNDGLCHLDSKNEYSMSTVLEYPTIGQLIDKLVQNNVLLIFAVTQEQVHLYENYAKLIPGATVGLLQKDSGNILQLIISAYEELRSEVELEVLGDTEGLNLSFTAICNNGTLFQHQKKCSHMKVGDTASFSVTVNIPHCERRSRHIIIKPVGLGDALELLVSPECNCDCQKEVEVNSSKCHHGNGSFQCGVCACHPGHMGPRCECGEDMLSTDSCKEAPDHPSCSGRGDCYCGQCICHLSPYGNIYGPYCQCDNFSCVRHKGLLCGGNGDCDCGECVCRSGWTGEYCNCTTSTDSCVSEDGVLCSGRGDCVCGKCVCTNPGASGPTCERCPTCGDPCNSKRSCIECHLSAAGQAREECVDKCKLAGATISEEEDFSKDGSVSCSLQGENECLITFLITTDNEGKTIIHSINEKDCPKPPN

The test deals with recombinant human integrin αvβ6 (Homo sapiens (Human), UniProt P06756+P18564). As to the kind of experiment: Solid phase integrin αvβ6 binding assay. To be noted: plate-coated integrin; recombinant TGFβ1 LAP 0.67 ug/ml as ligand; 2 hours at 25° C.; read-out: αvβ6 Inhibition IC50 (nM) - range. In outline:
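Plates coated with recombinant human αvβ6 (2 ug/ml); compounds and TGFβ1 LAP (0.67 ug/ml) incubated 2 h at 25° C in TBS buffer with 0.5 mM MnCl2. Bound LAP detected with biotin-anti-hLAP and peroxidase-streptavidin; IC50 from four-parameter logistic fit.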
Usually IC50 stands for the point on the concentration scale where inhibition reaches its midpoint. In the case of `Cn1ncc2ccc(C(=O)N[C@@H](CCN3CCC[C@@](F)(CCc4ccc5c(n4)NCCC5)C3)C(=O)O)cc21` [Compound 106], the IC50 lay in the range of 50 to 250 nM.

Turning to `O=C(N[C@@H](CCN1CCC[C@@](F)(CCc2ccc3c(n2)NCCC3)C1)C(=O)O)C1CCC(F)(F)CC1` [Compound 107], the IC50 was 50 to 250 nM.

For `CCC(CC)C(=O)N[C@@H](CCN1CCC[C@](F)(CCc2ccc3c(n2)NCCC3)C1)C(=O)O` [Compound 108], the IC50 lay in the range of 250 to 1000 nM.

Consider `O=C(N[C@@H](CCN1CCC[C@](F)(CCc2ccc3c(n2)NCCC3)C1)C(=O)O)C1CCC(F)(F)CC1` [Compound 109], for which the 50% inhibitory concentration (IC50) lay within 50 to 250 nM.

`Cn1ncc2ccc(C(=O)N[C@@H](CCN3CCC[C@](F)(CCc4ccc5c(n4)NCCC5)C3)C(=O)O)cc21` [Compound 110]: the IC50 is below 50 nM.

For `CC(C)(C)OC(=O)N[C@@H](CCN1CC[C@@H](OCc2ccc3c(n2)NCCC3)C1)C(=O)O` [Compound 111], the IC50 was above 1000 nM.

As for `O=C(N[C@@H](CCN1CC[C@@H](OCc2ccc3c(n2)NCCC3)C1)C(=O)O)c1ccccc1` [Compound 112], the IC50 was above 1000 nM.

For `Cc1cc(C)n(-c2cccc(C(=O)N[C@@H](CCN3CC[C@@H](OCc4ccc5c(n4)NCCC5)C3)C(=O)O)c2)n1` [Compound 113], the IC50 is above 1000 nM.

For `O=C(N[C@@H](CCN1CC[C@@H](OCCc2ccc3c(n2)NCCC3)C1)C(=O)O)c1c(Cl)cccc1Cl` [Compound 114], the IC50 fell in the range of 250 to 1000 nM.

For the compound `O=C(N[C@@H](CCN1CC(OCCc2ccc3c(n2)NCCC3)C1)C(=O)O)c1c(Cl)cccc1Cl` [Compound 115], the 50% inhibitory concentration (IC50) was below 50 nM.

With `CC(=O)N1CCN(CC[C@H](NC(=O)c2ccccc2)C(=O)O)C[C@@H]1CCc1ccc2c(n1)NCCC2` [Compound 116], the IC50 is above 1000 nM.

`O=C(N[C@@H](CCN1CC[C@@H](OCCc2ccc3c(n2)NCCC3)C1)C(=O)O)C1CCOCC1` [Compound 117]: the IC50 is 250 to 1000 nM.

In the case of `CC(C)(C(=O)N[C@@H](CCN1CC[C@@H](OCCc2ccc3c(n2)NCCC3)C1)C(=O)O)c1ccccc1` [Compound 118], the IC50 fell in the range of 250 to 1000 nM.

As to `CC(C)(Cc1ccccc1)C(=O)N[C@@H](CCN1CC[C@@H](OCCc2ccc3c(n2)NCCC3)C1)C(=O)O` [Compound 119], the IC50 fell in the range of 250 to 1000 nM.

Take `CC(C)(C(=O)N[C@@H](CCN1CC(OCCc2ccc3c(n2)NCCC3)C1)C(=O)O)c1ccccc1` [Compound 120]: the IC50 was 50 to 250 nM.

For `O=C(O)[C@H](CCN1CC[C@@H](OCCc2ccc3c(n2)NCCC3)C1)NC(=O)[C@@H]1CCCN1Cc1ccccc1` [Compound 121], the IC50 is 250 to 1000 nM.

With `CC(C)(C(=O)N[C@@H](CCN1CC[C@@H](OCCc2ccc3c(n2)NCCC3)C1)C(=O)O)c1cccnc1` [Compound 122], the half-maximal inhibitory concentration (IC50) is 250 to 1000 nM.

For the compound `O=C(O)[C@H](CCN1CC(OCCc2ccc3c(n2)NCCC3)C1)NC(=O)[C@@H]1CCCN1Cc1ccccc1` [Compound 123], the concentration for half-maximal inhibition (IC50) was below 50 nM.

Regarding `O=C(N[C@@H](CCN1CC(OCCc2ccc3c(n2)NCCC3)C1)C(=O)O)C1CCOCC1` [Compound 124], the 50% inhibitory concentration (IC50) fell in the range of 50 to 250 nM.

With `O=C(N[C@@H](CCN1CC[C@@H](OCCc2ccc3c(n2)NCCC3)C1)C(=O)O)[C@@H]1CCN(c2ccccn2)C1` [Compound 125], the IC50 fell in the range of 250 to 1000 nM.

Turning to `O=C(N[C@@H](CCN1CC[C@@H](OCCc2ccc3c(n2)NCCC3)C1)C(=O)O)[C@H]1CCN(c2ccccn2)C1` [Compound 126], the half-inhibitory concentration (IC50) is above 1000 nM.

Consider `O=C(O)[C@H](CCN1CC(OCCc2ccc3c(n2)NCCC3)C1)NC(=O)[C@@H]1CCCN1c1ccccc1` [Compound 127], for which the IC50 was below 50 nM.

Consider `CC(C)(C(=O)N[C@@H](CCN1CC(OCCc2ccc3c(n2)NCCC3)C1)C(=O)O)c1cccnc1` [Compound 128], for which the IC50 was in the range of 250 to 1000 nM.

For the compound `O=C(O)[C@H](CCN1CC(CCc2ccc3c(n2)NCCC3)C1)NC(=O)[C@@H]1CCCN1c1ccccc1` [Compound 129], the half-inhibitory concentration (IC50) lay in the range of 250 to 1000 nM.

In the case of `CC(C)(Cc1ccccc1)C(=O)N[C@@H](CCN1CC(OCCc2ccc3c(n2)NCCC3)C1)C(=O)O` [Compound 130], the concentration for half-maximal inhibition (IC50) was in the range of 250 to 1000 nM.

As for `O=C(N[C@@H](CCN1CC(OCCc2ccc3c(n2)NCCC3)C1)C(=O)O)[C@@H]1CCN(c2ccccn2)C1` [Compound 131], the IC50 was in the range of 50 to 250 nM.

As for `O=C(N[C@@H](CCN1CC(OCCc2ccc3c(n2)NCCC3)C1)C(=O)O)[C@H]1CCN(c2ccccn2)C1` [Compound 132], the concentration for half-maximal inhibition (IC50) fell in the range of 50 to 250 nM.

Turning to `O=C(O)[C@H](CCN1CC[C@@H](OCCc2ccc3c(n2)NCCC3)C1)NC(=O)[C@@H]1CCCN1c1ccccc1` [Compound 133], the IC50 is 250 to 1000 nM.

For `CC(C)(O)CC1NCCC1C(=O)N[C@@H](CCN1CC(OCCc2ccc3c(n2)NCCC3)C1)C(=O)O` (stereo partly drawn) [Compound 134], the IC50 was in the range of 250 to 1000 nM.

With `O=C(N[C@@H](CCN1CC(CCc2ccc3c(n2)NCCC3)C1)C(=O)O)C1CCCN1Cc1ccccc1` (stereo partly drawn) [Compound 135], the IC50 is above 1000 nM.

Turning to `CC(C)(C(=O)N[C@@H](CCN1CC(CCc2ccc3c(n2)NCCC3)C1)C(=O)O)c1ccccc1` [Compound 136], the IC50 is above 1000 nM.

With `CC(C)(Cc1ccccc1)C(=O)N[C@@H](CCN1CC(CCc2ccc3c(n2)NCCC3)C1)C(=O)O` [Compound 137], the half-inhibitory concentration (IC50) is above 1000 nM.

For the compound `O=C(N[C@@H](CCN1CC(CCc2ccc3c(n2)NCCC3)C1)C(=O)O)[C@H]1CCN(c2ccccn2)C1` [Compound 138], the IC50 fell in the range of 250 to 1000 nM.

On to `O=C(N[C@@H](CCN1CC(CCc2ccc3c(n2)NCCC3)C1)C(=O)O)c1c(Cl)cccc1Cl` [Compound 139], for which the half-inhibitory concentration (IC50) is 250 to 1000 nM.

Consider `O=C(N[C@@H](CCN1C2CCC1C(CCc1ccc3c(n1)NCCC3)C2)C(=O)O)c1cc(F)cc(C(F)(F)F)c1` (stereo partly drawn) [Compound 140], for which the IC50 is above 1000 nM.

On to `O=C(N[C@@H](CCN1C2CCC1C(CCc1ccc3c(n1)NCCC3)C2)C(=O)O)c1cc(F)cc(C(F)(F)F)c1` (stereo partly drawn) [Compound 141], for which the IC50 was below 50 nM.

In the case of `CC(C)(O)CN1CCC[C@H]1C(=O)N[C@@H](CCN1CC[C@@H](OCCc2ccc3c(n2)NCCC3)C1)C(=O)O` [Compound 142], the IC50 is above 1000 nM.

In the case of `O=C(O)[C@H](CCN1CC(CCc2ccc3c(n2)NCCC3)C1)NC(=O)[C@@H]1CCNC1Cc1ccccc1` (stereo partly drawn) [Compound 143], the half-inhibitory concentration (IC50) was above 1000 nM.

On to `CC(C)(C(=O)N[C@@H](CCN1CC(CCc2ccc3c(n2)NCCC3)C1)C(=O)O)c1cccnc1` [Compound 144], for which the half-maximal inhibitory concentration (IC50) was above 1000 nM.

As to `CCC(CC)C(=O)N[C@@H](CCN1C2CCC1C(CCc1ccc3c(n1)NCCC3)C2)C(=O)O` (stereo partly drawn) [Compound 145], the IC50 was above 1000 nM.

For the compound `O=C(N[C@@H](CCN1CC[C@H](CCc2ccc3c(n2)NCCC3)C1)C(=O)O)c1c(Cl)cccc1Cl` [Compound 146], the half-maximal inhibitory concentration (IC50) was below 50 nM.

In the case of `O=C(N[C@H](CCN1CC[C@H](CCc2ccc3c(n2)NCCC3)C1)C(=O)O)c1c(Cl)cccc1Cl` [Compound 147], the IC50 is above 1000 nM.
